Measurements published in patent publication US8946195B2, “Bicyclic methyl amine derivatives as sphingosine-1 phosphate receptors modulators” (Allergan, Inc., priority 2011, dated 2015).

Each molecule was assayed against T1, human S1P1 receptor (Homo sapiens, UniProt P21453) (assay: GTP γ35S binding assay for S1P1 activity). Conditions: membranes of cells stably expressing the S1P1 receptor, agonist potency.
T1 construct: expressed in transfected cells; membranes used
Assay type: biochemical
Protocol: Compounds were synthesized and tested for S1P1 activity using the GTP γ^35S binding assay. These compounds may be assessed for their ability to activate or block activation of the human S1P1 receptor in cells stably expressing the S1P1 receptor.
GTP γ35S binding was measured in the medium containing (mM) HEPES 25, pH 7.4, MgCl2 10, NaCl 100, dithitothreitol dithitothreitol 0.5, digitonin 0.003%, 0.2 nM GTP γ35S, and 5 μg membrane protein in a volume of 150 μl. Test compounds were included in the concentration range from 0.08 to 5,000 nM unless indicated otherwise. Membranes were incubated with 100 μM 5′-adenylylimidodiphosphate adenylylimmidodiphosphate for 30 min, and subsequently with 10 μM GDP for 10 min on ice. Drug solutions and membrane were mixed, and then reactions were initiated by adding GTP γ35S and continued for 30 min at 25° C. Reaction mixtures were filtered over Whatman GF/B filters under vacuum, and washed three times with 3 mL of ice-cold buffer (HEPES 25, pH7.4, MgCl2 10 and NaCl 100). Filters were dried and mixed with scintillant, and counted for 35S activity using a β-counter. Agonist-induced GTP γ35S binding was obtained by subtracting that in the absence of agonist. Binding data were analyzed using a non-linear regression method. In case of antagonist assay, the reaction mixture contained 10 nM […] in the presence of test antagonist at concentrations ranging from 0.08 to 5000 nM.

T1 sequence (P21453 whole entry): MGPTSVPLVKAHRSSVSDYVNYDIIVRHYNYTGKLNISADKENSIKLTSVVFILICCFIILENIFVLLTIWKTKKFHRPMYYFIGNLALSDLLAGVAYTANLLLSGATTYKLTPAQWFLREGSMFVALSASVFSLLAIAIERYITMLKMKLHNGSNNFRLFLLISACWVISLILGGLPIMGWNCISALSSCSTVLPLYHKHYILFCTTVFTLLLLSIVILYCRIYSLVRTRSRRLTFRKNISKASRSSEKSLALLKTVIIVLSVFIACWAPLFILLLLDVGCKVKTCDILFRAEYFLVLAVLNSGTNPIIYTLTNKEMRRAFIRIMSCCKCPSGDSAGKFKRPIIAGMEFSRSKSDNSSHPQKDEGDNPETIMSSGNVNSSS

| EC50 [nM] | Compound |
| --- | --- |
| 37.1 | CCCCCCc1ccc(-c2ccc(CNCCCP(=O)(O)O)c3c2CCC3)cc1 [Compound 1, [3-({[7-(4-hexylphenyl)-2,3-dihydro-1H-inden-4-yl]methyl}amino)propyl]phosphonic acid] |
| 44.4 | CCCCCCc1ccc(-c2ccc(CNCCCP(=O)(O)O)c3ccoc23)cc1 [Compound 3, [3-({[7-(4-hexylphenyl)-1-benzofuran-4-yl]methyl}amino)propyl]phosphonic acid] |
| 170 | CCCCCCc1ccc(-c2ccc(CNCCCP(=O)(O)O)c3occc23)cc1 [Compound 2, [3-({[4-(4-hexylphenyl)-1-benzofuran-7-yl]methyl}amino)propyl]phosphonic acid] |
